Measurements published in BindingDB's records for patent US20250059218 (The Leland Stanford Junior University, 2025).
pIC50: −log10 of the molar value.

Biological target: T1, Ectonucleotide pyrophosphatase/phosphodiesterase family member 1 (Mus musculus, UniProt P06802)
T1 sequence (P06802 whole entry): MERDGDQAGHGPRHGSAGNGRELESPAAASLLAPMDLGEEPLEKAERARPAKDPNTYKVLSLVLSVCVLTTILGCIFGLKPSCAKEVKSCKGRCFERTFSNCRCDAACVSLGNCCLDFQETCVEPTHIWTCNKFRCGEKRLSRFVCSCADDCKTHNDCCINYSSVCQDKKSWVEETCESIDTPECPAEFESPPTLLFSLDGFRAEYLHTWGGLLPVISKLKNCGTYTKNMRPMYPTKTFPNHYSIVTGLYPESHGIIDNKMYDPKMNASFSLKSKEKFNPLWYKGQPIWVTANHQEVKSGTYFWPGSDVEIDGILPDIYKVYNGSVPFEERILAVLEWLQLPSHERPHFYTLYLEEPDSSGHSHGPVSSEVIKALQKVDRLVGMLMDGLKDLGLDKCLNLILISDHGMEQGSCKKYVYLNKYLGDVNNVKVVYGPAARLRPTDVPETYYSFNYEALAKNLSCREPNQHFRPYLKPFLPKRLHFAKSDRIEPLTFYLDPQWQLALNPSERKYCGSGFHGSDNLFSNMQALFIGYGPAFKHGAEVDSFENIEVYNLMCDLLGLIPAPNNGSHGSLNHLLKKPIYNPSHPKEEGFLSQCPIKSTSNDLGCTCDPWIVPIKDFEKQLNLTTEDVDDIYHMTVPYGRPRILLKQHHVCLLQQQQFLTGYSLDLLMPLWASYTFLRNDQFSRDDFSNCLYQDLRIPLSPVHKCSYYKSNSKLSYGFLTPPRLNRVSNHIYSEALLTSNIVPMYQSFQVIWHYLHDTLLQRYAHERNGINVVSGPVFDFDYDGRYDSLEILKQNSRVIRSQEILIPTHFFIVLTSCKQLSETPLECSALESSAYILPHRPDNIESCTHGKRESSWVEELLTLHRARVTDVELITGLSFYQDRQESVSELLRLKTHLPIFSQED
Experiment: ENPP1 Enzyme Activity Assay
Experimental: The AMP degradation product was converted to ATP, which was detected using luciferase. To achieve this, an enzyme mixture of polyphosphate:AMP phosphotransferase (PAP) and myokinase was prepared according to Goueli et al. in EP2771480. Briefly, PAP was diluted to 2 mg/mL in buffer containing 50 mM Tris pH 7.5, 0.1% NP-40. Myokinase was diluted to 2 KU/mL in buffer containing 3.2 mM ammonium sulfate pH 6.0, 1 mM EDTA, and 4 mM polyphosphate. The heat-inactivated ENPP1 reaction was incubated with PAP (0.01 μg/μL) and myokinase (0.0075 U/μL) in buffer containing 40 mM Tris pH 7.5, 0.05 mg/mL Prionex, 5 mM MgCl2, 20 μM polyphosphate, and 0.15 g/L phenol red (for ease of pipetting) for 3 hours (total reaction volume=20 μL). CellTiterGlo (20 uL) was added to the reaction according to manufacturer's protocol and luminescence was measured.

Row | SMILES | pIC50
1 | COc1cc2ncnc(Nc3ccc(P(=O)(O)O)cc3)c2cc1OC [US20250059218, Compound 2] | < 7.00
2 | COc1cc(OC)c2ncc(C#N)c(N3CCC(CCP(=O)(O)O)CC3)c2c1 [US20250059218, Compound 46] | < 7.00
3 | COc1ccc2c(N3CCC(COP(O)(O)=S)CC3)c(C#N)cnc2c1 [US20250059218, Compound 48] | < 7.00
4 | COc1cccc2c(N3CCC(COP(O)(O)=S)CC3)c(C#N)cnc12 [US20250059218, Compound 50] | < 7.00
5 | COc1cc2ncnc(NCc3ccc(C(=O)NO)cc3)c2cc1OC [US20250059218, Compound 101] | < 7.00
6 | COc1ccc2c(NCc3ccc(B(O)O)cc3)ncnc2c1 [US20250059218, Compound 103] | < 7.00
7 | COc1cccc2c(NCc3ccc(C(=O)NO)cc3)ncnc12 [US20250059218, Compound 104] | < 7.00
8 | COc1cc2nccc(N3CCC(CCP(=O)(O)O)CC3)c2cc1OC [US20250059218, Compound 201] | < 7.00
9 | COc1cc2ncc(N)c(N3CCC(CCP(=O)(O)O)CC3)c2cc1OC [US20250059218, Compound 205] | > 7.30
10 | COc1cc2ncc(Cl)c(N3CCC(CCP(=O)(O)O)CC3)c2cc1OC [US20250059218, Compound 207] | < 7.00
11 | COc1cc2ncc(F)c(N3CCC(CCP(=O)(O)O)CC3)c2cc1OC [US20250059218, Compound 208] | < 7.00
12 | COc1ccc2c(N3CCC(CCCP(=O)(O)O)CC3)c(C#N)cnc2c1 [US20250059218, Compound 209] | > 7.30
13 | COc1cccc2c(N3CCC(CCCP(=O)(O)O)CC3)c(C#N)cnc12 [US20250059218, Compound 210] | > 7.30
14 | COc1cccc2c(NCc3ccc(CP(=O)(O)O)cc3)c(C#N)cnc12 [US20250059218, Compound 211] | > 7.30
15 | COc1ccc2c(NCc3ccc(B(O)O)cc3)c(C#N)cnc2c1 [US20250059218, Compound 213] | < 7.00
16 | COc1cccc2c(NCc3ccc(B(O)O)cc3)c(C#N)cnc12 [US20250059218, Compound 214] | < 7.00
17 | COc1ccc2c(N3CCC(CCOP(O)(O)=S)CC3)c(C#N)cnc2c1 [US20250059218, Compound 215] | < 7.00
18 | COc1cccc2c(N3CCC(CCB(O)O)CC3)c(C#N)cnc12 [US20250059218, Compound 216] | < 7.00
19 | COc1ccc2c(N3CCC(CCB(O)O)CC3)c(C#N)cnc2c1 [US20250059218, Compound 217] | < 7.00
20 | COc1cc2ncc3ncn(Cc4ccc(CP(=O)(O)O)cc4)c3c2cc1OC [US20250059218, Compound 218] | < 7.00
21 | COc1ccc2c(NCc3ccc(C(=O)NO)cc3)c(C#N)cnc2c1 [US20250059218, Compound 219] | < 7.00
22 | COc1cccc2c(NCc3ccc(C(=O)NO)cc3)c(C#N)cnc12 [US20250059218, Compound 220] | < 7.00

Second part, the compound after the results:

Row | pIC50 | SMILES
23 | > 7.30 | COc1cc2ncnc(NCc3ccc(P(=O)(O)O)cc3)c2cc1OC [US20250059218, Compound 4]
24 | > 7.30 | COc1cc2ncnc(NCc3ccc(CP(=O)(O)O)cc3)c2cc1OC [US20250059218, Compound 5]
25 | > 7.30 | COc1cccc2c(NCc3ccc(P(=O)(O)O)cc3)ncnc12 [US20250059218, Compound 36]
26 | > 7.30 | COc1cc2ncc(C#N)c(N3CCC(CCP(=O)(O)O)CC3)c2cc1OC [US20250059218, Compound 42]
27 | > 7.30 | COc1ccc2c(N3CCC(CCP(=O)(O)O)CC3)c(C#N)cnc2c1 [US20250059218, Compound 43]
28 | > 7.30 | COc1cccc2c(N3CCC(CCP(=O)(O)O)CC3)c(C#N)cnc12 [US20250059218, Compound 45]
29 | > 7.30 | COc1cccc2c(NCc3ccc(P(=O)(O)O)cc3)c(C#N)cnc12 [US20250059218, Compound 52]
30 | > 7.30 | COc1cccc2c(NCc3ccc(P(=O)(O)O)cc3)nc(/C=C/c3cccnc3)nc12 [US20250059218, Compound 53]
31 | > 7.30 | COc1cccc2c(NCc3ccc(B(O)O)cc3)ncnc12 [US20250059218, Compound 102]
32 | > 7.30 | COc1cc2ncc(C#N)c(NCc3ccc(P(=O)(O)O)cc3)c2cc1OC [US20250059218, Compound 203]
33 | > 7.30 | COc1ccc2c(NCc3ccc(P(=O)(O)O)cc3)c(C#N)cnc2c1 [US20250059218, Compound 204]
